Reference: a melting point compilation (Tetko et al.; mined from patent text by program, amines drawn as free bases though some values may be those of a salt)

Work on `Cc1cc(C)c(/C=C/[C@H]2C[C@H](O)CC(=O)O2)c(-c2ccc(F)c(CO)c2)c1` (relative stereo) yielded a melting point of 137 to 138 °C.
In the case of `NC12CC=CCC1CCc1ccc(O)cc12` (centres undefined), the melting point is reported as 156 to 161 °C.
Molecule `CC(C)Oc1c(C(=O)O)sc2c1CN(C(=O)OC(C)(C)C)CC2` has a melting point of 128 to 129 °C.
`O=C(CNC(=S)c1cccnc1)NC1CC1` gave a melting point of 152 to 153 °C.
For `COc1nc2cc(Cl)c(Cl)c(NS(=O)(=O)c3ccccc3)c2nc1OC`, the melting point was 292 to 293 °C.
`Nc1c(Cl)cc(C(O)CNC2CC2)cc1C(F)(F)F` (centres undefined) showed a melting point of 138 to 139 °C.
Molecule `O=Cc1ccc(OC(F)F)c2oc3ccncc3c12` has a melting point of 215 to 217 °C.
Work on `COC(=O)C1CCC2C3CCC4CC(O)C(Br)CC4(C)C3C(=O)CC12C` (centres undefined) yielded a melting point of 205 to 208 °C.
`CCCCNc1c(C(=O)OCC)cnc2nn(C)cc12` showed a melting point of 95 to 97 °C.
Work on `CC(C(=O)O)c1ccc(N2CC(O)C(O)C2)c(Cl)c1` (centres undefined) yielded a melting point of 112 to 114 °C.
Work on `CCOc1cc2c(cc1OCC)C(C=Cc1ccc(O)c(OC)c1)=NN=C(C)C2` yielded a melting point of 190 to 191 °C.
With `CCOC(=O)c1cn(C)c2sc(CCl)cc2c1=O` the melting point was 111 to 112 °C.
In the case of `O=C1c2ccccc2C(=O)N1c1cccc(CBr)n1`, the melting point is reported as 169 to 170 °C.
For `CC(C)(C)NC(=O)Nc1nc2nc(N)ncc2cc1-c1c(F)cccc1F`, the melting point was > 300 °C.
For `Cc1cc(O)nc(Br)c1`, the melting point was 152 °C.
Work on `CC(=O)N1CCC(Oc2ccc(N3CCOCC3)cc2)CC1` yielded a melting point of 208 to 209 °C.
For `CC(=O)Nc1ccc(-c2cc(-c3nc4ccccc4c(=O)n3-c3cccc(C)c3)sc2N2CCOCC2)cc1`, the melting point was > 275 °C.
`COc1cc2c(cc1-c1cccnc1)-c1c(-c3cncs3)c3c(n1CC2)C(=O)N(C(C)(C)C)CCCC3` showed a melting point of 227 to 229 °C.
`CN1Cc2c(C(=O)N3CCN(C(=O)c4ncn5c4CN(C)C(=O)c4cc(Cl)ccc4-5)CC3)ncn2-c2ccc(Cl)cc2C1=O` gave a melting point of 367 to 374 °C.
`Fc1cnc(Nc2cccnc2)nc1Nc1ccc2c(c1)OCCO2` showed a melting point of 251 to 253 °C.
`CC(=O)N(C)c1cc(OCc2ccccc2)c2nc(C)n(C)c2c1` gave a melting point of 144 to 149 °C.
In the case of `CN(C(=O)C1c2ccccc2COc2ccc(Br)cc21)c1ccccc1` (centres undefined), the melting point is reported as 148 °C.
`NC1=NCC(COc2ccccc2F)O1` (centres undefined) gave a melting point of 124 °C.
In the case of `ICCOc1ccc(C2=C(c3ccccc3)CCCc3cc(OC4CCCCO4)ccc32)cc1` (centres undefined), the melting point is reported as 165 to 166 °C.
Work on `COc1ccc(S(=O)(=O)Nc2c(C(=O)O)cc(C#N)c(Cc3ccccc3)c2C)cc1` yielded a melting point of 123 °C.
For `COC(=O)C(=O)c1cn(CCO)c2ccc(OCc3ccccc3)cc12`, the melting point was 148 to 150 °C.
Molecule `CCCn1c(=O)c2[nH]c(/C=C/c3cc(OC)cc(OC)c3)nc2n(CCC)c1=O` has a melting point of 249 to 250 °C.
In the case of `COc1ccc(C(=O)Nc2c(Cl)cncc2Cl)c2c1oc1ccc(NC(=O)C(F)(F)F)cc12`, the melting point is reported as > 300 °C.
With `Nc1sc2cccnc2c1N` the melting point was 204 to 209 °C.
Work on `Cc1sc2c(c1C(=O)c1ccc(S(C)=O)cc1)CCC2C(=O)O` (centres undefined) yielded a melting point of 209 to 213 °C.
In the case of `Cn1c(C(=O)O)c(Br)c2cc(OCc3ccccc3)ccc21`, the melting point is reported as 210 °C.
Work on `COc1cc(-c2ncnc(Cl)c2Cl)c(F)cc1Cl` yielded a melting point of 116 to 117 °C.
With `CS(=O)(=O)c1ccc(-c2cc(-c3nc4ccccc4c(=O)n3-c3ccc(Cl)cc3)sc2N2CCOCC2)cc1` the melting point was > 275 °C.
`CCCc1nn(C)c2c(-c3ccc(S(C)(=O)=O)cc3)nc(-c3ccc(F)cc3)nc12` showed a melting point of 208 to 210 °C.
In the case of `O=C1Nc2cc(NC(=O)c3cccn(-c4ccccc4)c3=O)ccc2/C1=C/c1ccc[nH]1`, the melting point is reported as > 300 °C.
For `CCOC(=O)C(C(=O)OCC)c1ccc(OCc2ccccc2)cc1`, the melting point was 65 to 66 °C.
In the case of `CNc1sc(Cl)cc1C(=O)c1ccccc1F`, the melting point is reported as 93 to 94 °C.
For `COC(=O)NC(=O)CC1=C(Cc2ccc3c(Br)cccc3c2)C(=O)CCC1`, the melting point was 128 to 129 °C.
For `CC(C)Oc1ccc(CCCOc2cc(CCC(=O)O)n(C)n2)c(OCc2ccc(Cl)cc2Cl)c1`, the melting point was 125 to 127 °C.
